Broadly, the pIC50 is the negative decadic logarithm of the IC50, by convention in mol/L.

The target in assay [1] is GST-JAK1 enzyme (Homo sapiens (Human), UniProt P23458). Put plainly: JAK1 Kinase Assay Protocol. The format is biochemical. The settings on record: JAK1 kinase inhibition; read-out: LLE_JAK1 (IC50). On the procedure: JAK1 Kinase Assay Protocol
(§1) The assay reactions were performed in U-bottom 384-well plates. […] The reaction was initiated by the combination of GST-JAK1 enzyme with substrates and test compounds. The reactions were incubated at room temperature for 3 hours and terminated by adding 60 μl of 35 mM EDTA to each sample. Each reaction mixture was analyzed on the Caliper LabChip 3000 (Caliper, Hopkinton, Mass.) by electrophoretic separation of the fluorescent substrate and phosphorylated product. […] Compounds were dissolved at 10 mM in dimethylsulfoxide (DMSO) and evaluated at eleven concentrations. IC50 values were derived by non-linear regression analysis.

Assay [2] has as its target GST-JAK3 enzyme (Homo sapiens (Human), UniProt P52333). Description: JAK3 Kinase Assay Protocol (Caliper). The settings on record: JAK3 kinase inhibition; read-out: LLE_JAK3_FB (IC50). The format is biochemical. The procedure:
JAK3 Kinase Assay Protocol (Caliper)
as §1, with “GST-JAK3” for “GST-JAK1”

Molecules are shown by their SMILES. pIC50: −log10 of the molar value.

Sequence of GST-JAK3 enzyme (P52333 whole entry): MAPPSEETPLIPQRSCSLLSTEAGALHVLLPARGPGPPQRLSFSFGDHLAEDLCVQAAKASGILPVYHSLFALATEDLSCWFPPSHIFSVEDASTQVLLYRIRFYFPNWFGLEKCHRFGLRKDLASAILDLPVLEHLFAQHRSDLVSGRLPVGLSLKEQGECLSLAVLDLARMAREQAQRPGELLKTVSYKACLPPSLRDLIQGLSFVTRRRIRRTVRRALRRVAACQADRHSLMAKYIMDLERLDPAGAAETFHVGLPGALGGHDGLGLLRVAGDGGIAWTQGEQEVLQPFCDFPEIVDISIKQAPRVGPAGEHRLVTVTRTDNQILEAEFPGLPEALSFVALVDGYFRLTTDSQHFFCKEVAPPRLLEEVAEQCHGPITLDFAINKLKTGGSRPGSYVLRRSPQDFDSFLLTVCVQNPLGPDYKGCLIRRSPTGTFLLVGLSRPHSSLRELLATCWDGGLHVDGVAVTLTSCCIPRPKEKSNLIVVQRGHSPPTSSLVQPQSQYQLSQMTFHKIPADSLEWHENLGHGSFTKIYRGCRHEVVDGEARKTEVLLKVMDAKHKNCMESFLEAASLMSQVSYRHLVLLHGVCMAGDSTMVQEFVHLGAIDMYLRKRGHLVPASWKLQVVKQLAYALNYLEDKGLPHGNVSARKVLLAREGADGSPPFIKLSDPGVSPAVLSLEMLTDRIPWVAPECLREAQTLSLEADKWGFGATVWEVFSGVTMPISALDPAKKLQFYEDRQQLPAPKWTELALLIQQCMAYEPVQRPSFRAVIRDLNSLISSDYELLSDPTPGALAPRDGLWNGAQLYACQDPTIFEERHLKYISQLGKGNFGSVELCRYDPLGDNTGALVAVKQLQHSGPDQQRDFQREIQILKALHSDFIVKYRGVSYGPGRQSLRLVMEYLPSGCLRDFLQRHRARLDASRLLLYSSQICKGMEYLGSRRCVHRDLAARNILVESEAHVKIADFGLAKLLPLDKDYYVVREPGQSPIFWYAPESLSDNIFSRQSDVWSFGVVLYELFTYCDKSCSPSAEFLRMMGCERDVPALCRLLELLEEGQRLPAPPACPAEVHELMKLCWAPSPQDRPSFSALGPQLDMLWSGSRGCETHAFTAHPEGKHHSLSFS
Sequence of GST-JAK1 enzyme (P23458 whole entry): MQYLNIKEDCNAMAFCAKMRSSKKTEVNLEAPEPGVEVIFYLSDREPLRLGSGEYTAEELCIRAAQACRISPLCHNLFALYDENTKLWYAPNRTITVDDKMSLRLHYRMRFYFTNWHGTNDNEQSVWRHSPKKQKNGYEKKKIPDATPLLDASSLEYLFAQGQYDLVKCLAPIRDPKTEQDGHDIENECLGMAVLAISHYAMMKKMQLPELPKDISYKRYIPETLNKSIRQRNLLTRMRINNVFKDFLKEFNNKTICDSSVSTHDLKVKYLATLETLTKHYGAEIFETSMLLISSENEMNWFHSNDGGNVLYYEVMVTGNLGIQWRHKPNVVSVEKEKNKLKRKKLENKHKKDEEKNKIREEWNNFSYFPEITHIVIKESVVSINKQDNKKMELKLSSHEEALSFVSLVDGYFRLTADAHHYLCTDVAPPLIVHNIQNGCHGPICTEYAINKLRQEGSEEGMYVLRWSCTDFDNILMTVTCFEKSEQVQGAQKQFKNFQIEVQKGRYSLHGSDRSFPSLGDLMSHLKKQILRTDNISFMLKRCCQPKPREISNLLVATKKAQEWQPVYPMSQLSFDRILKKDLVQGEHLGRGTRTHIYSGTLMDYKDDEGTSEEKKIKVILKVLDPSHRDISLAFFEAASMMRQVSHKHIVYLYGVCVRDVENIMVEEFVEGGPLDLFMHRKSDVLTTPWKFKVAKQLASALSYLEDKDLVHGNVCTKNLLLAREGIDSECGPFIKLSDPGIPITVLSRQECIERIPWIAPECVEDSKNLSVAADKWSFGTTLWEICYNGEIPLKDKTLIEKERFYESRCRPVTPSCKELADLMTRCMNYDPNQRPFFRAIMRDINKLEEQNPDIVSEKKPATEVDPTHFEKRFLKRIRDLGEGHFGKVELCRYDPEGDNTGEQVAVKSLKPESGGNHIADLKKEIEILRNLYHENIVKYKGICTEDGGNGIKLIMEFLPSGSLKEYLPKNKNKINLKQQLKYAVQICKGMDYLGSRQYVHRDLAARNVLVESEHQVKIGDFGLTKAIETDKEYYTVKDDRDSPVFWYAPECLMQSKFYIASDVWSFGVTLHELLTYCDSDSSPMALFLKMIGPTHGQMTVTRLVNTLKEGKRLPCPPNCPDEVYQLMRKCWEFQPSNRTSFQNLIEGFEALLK

On to `CS(=O)(=O)N1C[C@H](CF)[C@H](Nc2c(C(N)=O)cnn3cc(-c4ccc(C(F)(F)F)nc4)cc23)C1` (racemic) [Example 275, (+/−)-Cis-4-((-4-(fluoromethyl)-1-(methylsulfonyl)pyrrolidin-3-yl)amino)-6-(6-(trifluoromethyl)pyridin-3-yl)pyrrolo[1,2-b]pyridazine-3-carboxamide], for which the pIC50 in assay [1] is 8.21.

For the compound `NC(=O)c1cnn2cc(-c3ccc(F)cc3)cc2c1NC1CCOCC1` [Example 28, 6-(4-fluorophenyl)-4-(tetrahydro-2H-pyran-4-ylamino)pyrrolo[1,2-b]pyridazine-3-carboxamide], the pIC50 in assay [2] was 8.12; in assay [1] it was 7.67.

Take `NC(=O)c1cnn2cc(-c3cncc(F)c3)cc2c1NC1CCOCC1` [Example 29, 6-(5-fluoro-3-pyridinyl)-4-(tetrahydro-2H-pyran-4-ylamino)pyrrolo[1,2-b]pyridazine-3-carboxamide]: the pIC50 in assay [2] was 7.15; in assay [1], 6.92.

As to `Cn1nccc1-c1cc2c(NC3CCOCC3)c(C(N)=O)cnn2c1` [Example 30, 6-(1-methyl-1H-pyrazol-5-yl)-4-(tetrahydro-2H-pyran-4-ylamino)pyrrolo[1,2-b]pyridazine-3-carboxamide], the pIC50 in assay [2] was 6.96; in assay [1], 6.72.

In the case of `NC(=O)c1cnn2cc(-c3cccnc3)cc2c1NC1CCOCC1` [Example 31, 6-(3-pyridinyl)-4-(tetrahydro-2H-pyran-4-ylamino)pyrrolo[1,2-b]pyridazine-3-carboxamide], the pIC50 was 7.15 in assay [2] and 6.92 in assay [1].

Regarding `NC(=O)c1cnn2cc(-c3cncnc3)cc2c1NC1CCOCC1` [Example 32, 6-(5-pyrimidinyl)-4-(tetrahydro-2H-pyran-4-ylamino)pyrrolo[1,2-b]pyridazine-3-carboxamide], the pIC50 is 6.83 in assay [2] and 6.09 in assay [1].

As to `N#Cc1ccccc1-c1cc2c(NC3CCOCC3)c(C(N)=O)cnn2c1` [Example 33, 6-(2-cyanophenyl)-4-(tetrahydro-2H-pyran-4-ylamino)pyrrolo[1,2-b]pyridazine-3-carboxamide], the negative-log IC50 (pIC50) in assay [2] is 7.40; in assay [1], 6.96.

`NC(=O)c1cnn2cc(-c3ccccc3F)cc2c1NC1CCOCC1` [Example 34, 6-(2-fluorophenyl)-4-(tetrahydro-2H-pyran-4-ylamino)pyrrolo[1,2-b]pyridazine-3-carboxamide]: the pIC50 is 7.40 in assay [2] and 7.10 in assay [1].

As for `NC(=O)c1cnn2cc(-c3cnc4ccccc4c3)cc2c1NC1CCOCC1` [Example 35, 6-(3-quinolinyl)-4-(tetrahydro-2H-pyran-4-ylamino)pyrrolo[1,2-b]pyridazine-3-carboxamide], the pIC50 in assay [2] and in assay [1] was 7.40 throughout.

For the compound `CC1(F)COCC1Nc1c(C(N)=O)cnn2cc(N3CCCC3=O)cc12` (centres unmarked) [Example 40, 4-(4-fluoro-4-methyltetrahydrofuran-3-ylamino)-6-(2-oxopyrrolidin-1-yl)pyrrolo[1,2-b]pyridazine-3-carboxamide], the pIC50 in assay [2] is 7.82; in assay [1], 7.39.

In the case of `CS(=O)(=O)N1CCC[C@H](Nc2c(C(N)=O)cnn3cc(-c4ccccc4)cc23)C1` [Example 46, 4-(((3S)-1-(methylsulfonyl)-3-piperidinyl)amino)-6-phenylpyrrolo[1,2-b]pyridazine-3-carboxamide], the pIC50 was 7.68 in assay [2] and 7.24 in assay [1].

Turning to `COc1ccc(-c2cc3c(N[C@@H]4CCN(C(=O)[C@@H](C)O)CC4(C)C)c(C(N)=O)cnn3c2)cn1` [Example 56], the pIC50 in assay [2] was 8.48.

For the compound `CC(=O)N1C[C@H]2C[C@@H](Nc3c(C(N)=O)cnn4cc(-c5cnn(C)c5)cc34)[C@H](C)[C@H]2C1` [Example 93, 4-((3aS,4R,5R,6aS)-2-acetyl-4-methyloctahydrocyclopenta[c]pyrrol-5-ylamino)-6-(1-methyl-1H-pyrazol-4-yl)pyrrolo[1,2-b]pyridazine-3-carboxamide], the pIC50 in assay [2] was 9.40.

The values are drawn from US8987268B2, “Pyrrolopyridazine JAK3 inhibitors and their use for the treatment of inflammatory and autoimmune diseases” (Bristol-Myers Squibb Company, priority 2011, dated 2015).
